Consider `*/C=C(/*)C(CCC)[Si](C)(C)CCCCCC` (repeat unit), for which the glass transition temperature worked out at 40.00 °C.
`*/C=C(/*)C(CCC)[Si](C)(C)c1ccccc1` (repeat unit) returned a glass transition temperature of 110.00 °C.
With `*=CNc1ccc(Cc2ccc(N=*)cc2)cc1` (repeat unit), the glass transition temperature turned out to be 95.50 °C.
`*CC1CCC(COP(=O)(/N=N/c2ccc(Oc3ccc(/N=N/P(=O)(O*)OC)cc3)cc2)OC)CC1` (repeat unit) had a glass transition temperature of 50.00 °C.
With `*CCCCCCOP(=O)(/N=N/c1ccc(CCOC(=O)c2cc(C(=O)OCCc3ccc(/N=N/P(=O)(O*)OC)cc3)cc(C(C)(C)C)c2)cc1)OC` (repeat unit), the glass transition temperature amounted to 47.00 °C.
In turn, `*CCCCCCOP(=O)(/N=N/c1ccc(COC(=O)c2cc(C(=O)OCc3ccc(/N=N/P(=O)(O*)OC)cc3)cc(C(C)(C)C)c2)cc1)OC` (repeat unit) had a glass transition temperature of 62.00 °C.
Compound `*CCN(CCOC(=O)c1cc(OCCN(C)c2ccc(S(=O)(=O)CCCCCCCC)cc2)cc(C(=O)O*)c1)c1ccc(S(=O)(=O)C(F)(F)C(F)(F)C(F)(F)C(F)(F)C(F)(F)C(F)(F)C(F)(F)C(F)(F)F)cc1` (repeat unit) showed a glass transition temperature of 80.00 °C.
Regarding `*CCN(CCOC(=O)c1ccc(C(=O)O*)c(OCCC)c1)c1ccc(/N=N/c2ccc(-c3nc4cc([N+](=O)[O-])ccc4[nH]3)cc2)cc1` (repeat unit), the glass transition temperature was 152.00 °C.
The figure for `*CCN(CCOC(=O)c1ccc(C(=O)O*)c(OCCC)c1)c1ccc(/N=N/c2ccc(-c3nc4ccccc4o3)cc2)cc1` (repeat unit) is 117.00 °C; for `*CCN(CCOC(=O)c1ccc(C(=O)O*)c(OCCC)c1)c1ccc(/N=N/c2nc(C#N)c(C#N)[nH]2)cc1` (repeat unit) it is 152.00 °C; for `*CCOC(=O)Nc1ccc(C)c(NC(=O)OCCOc2cc([N+](=O)[O-])ccc2/N=N/c2cn(*)c3ccc(-c4ccc5c(c4)c4ccccc4n5CCCC)cc23)c1` (repeat unit) it is 160.00 °C.
Turning to `*CCOCCOC(=O)C(CCCCCCCCC)C(=O)O*` (repeat unit), the glass transition temperature is -59.00 °C.
Regarding `*CCOP(=O)(/N=N/c1ccc(COC(=O)c2cc(C(=O)OCc3ccc(/N=N/P(=O)(O*)OC)cc3)cc(C(C)(C)C)c2)cc1)OC` (repeat unit), the glass transition temperature was 105.00 °C.
The compound `*CCOP(=O)(/N=N/c1ccc(Oc2ccc(/N=N/P(=O)(O*)OCC)cc2)cc1)OCC` (repeat unit) showed a glass transition temperature of 22.00 °C.
The figure for `*Cc1ccc(COP(=O)(/N=N/c2ccc(-c3ccc(/N=N/P(=O)(O*)OC)cc3)cc2)OC)cc1` (repeat unit) is 48.00 °C; for `*Cc1ccc(COP(=O)(/N=N/c2ccc(C(=O)c3ccc(/N=N/P(=O)(O*)OC)cc3)cc2)OC)cc1` (repeat unit) it is 48.00 °C.
`*Cc1ccc(COP(=O)(/N=N/c2ccc(Oc3ccc(/N=N/P(=O)(O*)OC)cc3)cc2)OC)cc1` (repeat unit): the glass transition temperature is 50.00 °C.
The figure for `*Cc1ccccc1CN(CC)c1ccc(/C=C(\C#N)C(=O)Nc2cccc(NC(=O)/C(C#N)=C/c3ccc(N(*)CC)cc3)c2)cc1` (repeat unit) is 188.00 °C.
The compound `*Cc1ccccc1C[Si](*)(C)C` (repeat unit) returned a glass transition temperature of 75.00 °C.
As to `*N(CCC)[Si](C)(C)C[Si](*)(C)C` (repeat unit), the glass transition temperature is -20.00 °C.
In the case of `*N1CCOC1(*)CC` (repeat unit) it was 55.00 °C; in that of `*N=P(*)(C)c1ccccc1` (repeat unit), 37.00 °C; in that of `*N=P(*)(CC)c1ccccc1` (repeat unit), 20.00 °C.
`*Oc1ccc(CC(*)=O)cc1` (repeat unit) gave a glass transition temperature of 117.00 °C.
In the case of `*Oc1ccc(CC(NC(=O)CCc2ccc(OC(*)=O)cc2)C(=O)OCC)cc1` (repeat unit), the glass transition temperature came out at 96.00 °C.
Compound `*Oc1ccc(CC(NC(=O)CCc2ccc(OC(*)=O)cc2)C(=O)OCCCC)cc1` (repeat unit) returned a glass transition temperature of 67.00 °C.
For `*Oc1ccc(CC(NC(=O)CCc2ccc(OC(*)=O)cc2)C(=O)OCCCCCC)cc1` (repeat unit), the glass transition temperature was found to be 51.50 °C.
`*Oc1ccc(CC(NC(=O)CCc2ccc(OC(=O)CCCCC(*)=O)cc2)C(=O)OC)cc1` (repeat unit): the glass transition temperature was 70.00 °C.
The compound `*Oc1ccc(CC(NC(=O)CCc2ccc(OC(=O)CCCCCCC(*)=O)cc2)C(=O)OC(C)CC)cc1` (repeat unit) came in with a glass transition temperature of 46.00 °C.
The figure for `*Oc1ccc(CC(NC(=O)CCc2ccc(OC(=O)CCCCCCC(*)=O)cc2)C(=O)OCCCCCC)cc1` (repeat unit) is 27.00 °C; for `*Oc1ccc(CC(NC(=O)CCc2ccc(OC(=O)CCCCCCC(*)=O)cc2)C(=O)OCCCCCCCC)cc1` (repeat unit) it is 22.00 °C; for `*Oc1ccc(CC(NC(=O)CCc2ccc(OC(=O)CCCCCCC(*)=O)cc2)C(=O)OCCCCCCCCCCCC)cc1` (repeat unit) it is 15.00 °C.
In the case of `*Oc1ccc(CC(NC(=O)CCc2ccc(OC(=O)CCCCCCC(*)=O)cc2)C(=O)OCCOCCOCC)cc1` (repeat unit) it was 6.00 °C; in that of `*Oc1ccc(CC(NC(=O)CCc2ccc(OC(=O)CCCCCCCCC(*)=O)cc2)C(=O)OC(C)C)cc1` (repeat unit), 44.00 °C.
Take `*Oc1ccc(CC(NC(=O)CCc2ccc(OC(=O)CCCCCCCCC(*)=O)cc2)C(=O)OCCOCCOCC)cc1` (repeat unit): the glass transition temperature came to 2.00 °C.
The compound `*Oc1ccc(CC(NC(=O)CCc2ccc(OC(=O)COCCOCC(*)=O)cc2)C(=O)OC(C)CC)cc1` (repeat unit) yielded a glass transition temperature of 44.00 °C.
The figure for `*Oc1ccc(CC(NC(=O)CCc2ccc(OC(=O)COCCOCC(*)=O)cc2)C(=O)OC)cc1` (repeat unit) is 63.00 °C.
With `*Oc1ccc(CC(NC(=O)CCc2ccc(OC(=O)COCCOCC(*)=O)cc2)C(=O)OCC(C)C)cc1` (repeat unit), the glass transition temperature came to 50.00 °C.
The figure for `*Oc1ccc(CC(NC(=O)CCc2ccc(OC(=O)COCCOCC(*)=O)cc2)C(=O)OCC)cc1` (repeat unit) is 53.00 °C; for `*Oc1ccc(CC(NC(=O)CCc2ccc(OC(=O)COCCOCC(*)=O)cc2)C(=O)OCCCCCC)cc1` (repeat unit) it is 28.00 °C; for `*Oc1ccc(CC(NC(=O)CCc2ccc(OC(=O)COCCOCC(*)=O)cc2)C(=O)OCCCCCCCCCCCC)cc1` (repeat unit) it is 17.00 °C.
The compound `*Oc1ccc(CC(NC(=O)Cc2ccc(OC(=O)CCCCCCC(*)=O)cc2)C(=O)OCCCCCC)cc1` (repeat unit) yielded a glass transition temperature of 27.00 °C.
In turn, `*Oc1ccc(CC(NC(=O)Cc2ccc(OC(=O)COCC(*)=O)cc2)C(=O)OCC)cc1` (repeat unit) displayed a glass transition temperature of 66.00 °C.

The values above are taken from the PolyMetriX glass transition set.
